Data from patent US6875578B2, “System for cell-based screening” (priority 1997, dated 2005).
Entries after “also recorded” stand apart in the source; their conditions may differ.

How the values were obtained:
[1] = system: caspase-3; experiment: Caspase-3 biosensor apoptosis assay, MCF-7 cells; type: cell-based; conditions: MCF-7 cells
Procedure: (§1) For DNA transfection, BHK cells and MCF-7 cells were cultured to 50-70% confluence in 6 well plates containing 3 ml of minimal Eagle's medium (MEM) with 10% fetal calf serum, 1 mM L-glutamine, 50 μg/ml streptomycin, 50 μg/ml penicillin, 0.1 mM non-essential amino acids, 1 mM sodium pyruvate and 10 μg/ml of bovine insulin (for MCF-7 cell only) at 37° C. in a 5% CO2 incubator for about 36 hours. The cells were washed with serum free MEM media and incubated for 5 hours with 1 ml of transfection mixture containing 1 μg of the appropriate plasmid and 4 μg of lipofectimine (BRL) in the serum free MEM media. Subsequently, the transfection medium was removed and replaced with 3 ml of normal culture media. The transfected cells were maintained in growth medium for at least 16 hours before performing selection of the stable cells based on standard molecular biology methods (Ausubel. et al 1995).
For apoptosis assays, the cells (BHK, MCF-7) stably transfected with the appropriate protease biosensor expression vector were plated on tissue culture treated 96-well plates at 50-60% confluence and cultured overnight at 37° C., 5% CO2. Varying concentrations of cis-platin, staurosporine, or paclitaxel in normal culture media were freshly prepared from stock and added to cell culture dishes to replace the old culture media. The cells were then observed with the cell screening system of the present invention at the indicated time points either as live cell experiments or as fixed end-point experiments.
This biosensor is restricted to the cytoplasm by the reactant target sequence. The reactant target sequence is the annexin II cytoskeletal binding domain ([…]) (SEQ ID NO:124) (FIG. 29C) (Eberhard et al. 1997. Mol. Biol. Cell 8:293a). The enzyme recognition site corresponds to two copies of the amino acid sequence DEVD (SEQ ID NO:60) (FIG. 29B), which serves as the recognition site of caspase-3. […]
(§2) The biosensor response is measured by quantitating the effective cytoplasm-to-nuclear translocation of the signal (see above). […]

[2] = system: caspase-3; conditions: MCF-7 cells; accompanied by cleavage of PARP; cited from earlier work
[3] = system: p38 MAPK and NF-κB pathways; experiment: Dual labeling assay of the p38 MAPK and NF-κB pathways; type: cell-based; conditions: added alone; two different cell types
Source text: The assay we present here measures, as one of its parameters, p38 activation using immunolocalization of the phosphorylated form of p38 in toxin-treated cells. The assay was developed to be flexible enough to include the simultaneous measurement of other parameters within the same individual cells. Because the signal transduction pathway mediated by the transcription factor NF-κB is also known to be involved in the cell stress response, we included the activation of NF-κB as a second parameter in the same assay.
Multiple cell types, model toxins, and antibodies were tested, and significant stimulation of both pathways was measured in a high-content mode. The phospho-p38 antibodies used in this study were purchased from Sigma Chemical Company (St. Louis, Mo.). We report that at least two cell stress signaling pathways can not only be measured simultaneously, but are differentially responsive to classes of model toxins.

[4] = system: microtubule arrays (tubulin-GFP chimera); experiment: Microtubule disruption assay, LLCPK cells with tubulin-GFP biosensor; type: cell-based, pig; conditions: 10-500 nM, 12 hour time point
Procedure: For microtubule disruption assays, LLCPK cells stably transfected with a tubulin-GFP biosensor plasmid were plated on 96 well cell culture dishes at 50-60% confluence and cultured overnight at 37° C., 5% CO2. […] The cells were then observed with the cell screening system described above, at a 12 hour time point.

[5] = system: caspase-3; experiment: Caspase-3 biosensor apoptosis assay, BHK cells; type: cell-based; conditions: BHK cells transfected with the caspase 3 biosensor
Procedure: as §1
For apoptosis assays, the cells (BHK, MCF-7) stably transfected with the appropriate protease biosensor expression vector were plated on tissue culture treated 96-well plates at 50-60% confluence and cultured overnight at 37° C., 5% CO2. […]
as §2

[6] = system: NF-κB; experiment: NF-κB immunolocalization in toxin treated SNB19 cells; type: cell-based; conditions: based on molecular weights of 17 kD, read-out: EC50 (NF-κB activation)
Source text: (§3) For further studies, we characterized endogenous NF-κB activation by immunolocalization in toxin treated cells. The NF-κB antibodies used in this study were purchased from Santa Cruz Biotechnology, Inc. (Santa Cruz, Calif.), and secondary antibodies are from Molecular Probes (Eugene, Oreg.).
(§4) For the 3T3 and SNB19 cell types, we determined the effective concentrations that yield response levels of 50% of the maximum (EC50), expressed in units of mass per volume (ng/ml) and units of molarity. Based on molecular weights of 17 kD for both TNFα and IL-1α, the EC50 levels for these two compounds with 3T3 and SNB19 cell types are given in units of molarity in Table 1.
For these experiments, either 10 or 100 TNFα-treated 3T3 or SNB19 cells/well were tested. On the basis of the standard deviations measured for these samples, and by taking t-values for the student's t-test, we have estimated the minimum detectable doses for each case of cell type, compound, number of cells per well, and for different choices of how many wells are sampled per condition. The latter factor determines the number of degrees of freedom that are provided in the sample of data. […] If the false positive rate is relaxed to 20%, a concentration of approximately half that value can be detected (0.83 ng/ml). […]

[7] = system: NF-κB; experiment: NF-κB immunolocalization in toxin treated 3T3 cells; type: cell-based
Source text: as §3, §4
For these experiments, either 10 or 100 TNFα-treated 3T3 or SNB19 cells/well were tested. On the basis of the standard deviations measured for these samples, and by taking t-values for the student's t-test, we have estimated the minimum detectable doses for each case of cell type, compound, number of cells per well, and for different choices of how many wells are sampled per condition. The latter factor determines the number of degrees of freedom that are provided in the sample of data. Increasing the number of wells from 4 to 16, and increasing the number of cells per well from 10 to 100, improves the minimum detectable doses considerably. […] If the false positive rate is relaxed to 20%, a concentration of approximately half that value can be detected (0.83 ng/ml). One hundred cells can conveniently be sampled over a cell culture surface area of less than 1 mm^2.

[8] = system: MCF-7 cells; experiment: Apoptosis mitochondrial mass/potential, MCF-7 cells; type: cell-based; conditions: 30 hours
Procedure: (§5) Cells were plated into 96-well plates at densities of 3×10^3 to 1×10^4 cells/well. The following day apoptotic inducers were added at the indicated concentrations and cells were incubated for the indicated time periods (usually 16-30 hours). Cells were stained with 5 μg/ml Hoechst (Molecular Probes, Inc.) and 750 nM MITOTRACKER™ Red (CMXRos, Molecular Probes, Inc.) in fresh medium and incubated for 30 minutes at 37° C. Cells were washed in HBSS and fixed with 3.7% formaldehyde in HBSS at room temperature. Plates were washed with HBSS and permeabilized with 0.5% v/v TRITON™ X-100 in HBSS at room temperature. Cells were washed 2× with HBSS at room temperature and the plate was sealed. For dual labeling of mitochondria, cells were treated with 200 nM MITOTRACKER™ Green and 200 nM MITOTRACKER™ Red for 0.5 hours before fixation.
(§6) The mitochondrial membrane potential is measured by labeling mitochondria with both MITOTRACKER™ Green FM and MITOTRACKER™ Red (Molecular Probes, mc). MITOTRACKER™ Red labeling is proportional to both mass and membrane potential. MITOTRACKER™ Green FM labeling is proportional to mass. The ratio of MITOTRACKER™ Red signal to the MITOTRACKER™ Green FM signal provides a measure of mitochondrial membrane potential (Poot and Pierce, 1999). This ratio normalizes the […]. […]

[9] = system: L929 cells; experiment: Apoptosis actin reorganization (f-actin content), L929 cells; type: cell-based, mouse; conditions: 30 hours
Procedure: (§7) Cells were plated in 96-well plates at densities of 3×10^3 to 1×10^4 cells/well. The following day apoptotic inducers were added at indicated concentrations. Cells were incubated for the indicated time periods (usually 16-30 hours). The next day the medium was removed and cells were stained with 5 μg/ml Hoechst (Molecular Probes, Inc.) in fresh medium and incubated for 30 minutes at […]. Cells were washed in HBSS and fixed with 3.7% formaldehyde in HBSS at room temperature. Plates were washed with HBSS and permeabilized with 0.5% v/v Triton X-100 in HBSS at room temperature. Plates were washed in HBSS and stained with 100 μl of 1 U/ml of Alexa 488 Phalloidin stock (100 μl/well, Molecular Probes, Inc.). Cells were washed 2×with HBSS at RT and the plate was sealed.
(§8) Quantitation of f-actin content was accomplished by measuring the intensity of phalloidin staining around the nucleus. This was determined to be a reasonable approximation of a full cytoplasmic average of the intensity. The mask used to approximate this cytoplasmic measure was derived from the nuclear mask defined by the Hoechst stain. Derivation was accomplished by combinations of erosions and dilations.

[10] = system: L929 cells; experiment: Apoptosis mitochondrial mass/potential, L929 cells; type: cell-based, mouse; conditions: 30 hours
Procedure: as §5, §6

[11] = system: MCF-7 cells; experiment: Apoptosis actin reorganization (f-actin content), MCF-7 cells; type: cell-based; conditions: 30 hours
Procedure: as §7, §8

[12] = system: MCF-7 cells; experiment: Apoptosis nuclear morphology, MCF-7 cells; type: cell-based; conditions: 30 hours
Procedure: (§9) Cells were plated into 96-well plates at densities of 3×10^3 to 1×10^4 cells/well. The following day apoptotic inducers were added at indicated concentrations and cells were incubated for indicated time periods (usually 16-30 hours). The next day medium was removed and cells were stained with 5 μg/ml Hoechst (Molecular Probes, Inc.) in fresh medium and incubated for 30 minutes at 37° C. Cells were washed in Hank's Balanced Salt Solution (HBSS) and fixed with 3.7% formaldehyde in HBSS at room temperature. Cells were washed 2×with HBSS at room temperature and the plate was sealed.
(§10) Quantitation of changes in nuclear morphology upon induction of apoptosis was accomplished by (1) measuring the effective size of the nuclear region; and (2) measuring the degree of convolution of the perimeter.

[13] = system: BHK cells; experiment: Apoptosis mitochondrial mass/potential, BHK cells; type: cell-based; conditions: 30 hours
Procedure: as §5, §6

[14] = system: BHK cells; experiment: Apoptosis actin reorganization (f-actin content), BHK cells; type: cell-based; conditions: 30 hours
Procedure: as §7, §8

[15] = system: L929 cells; experiment: Apoptosis nuclear morphology, L929 cells; type: cell-based, mouse; conditions: 30 hours
Procedure: as §9, §10

[16] = system: BHK cells; experiment: Apoptosis nuclear morphology, BHK cells; type: cell-based; conditions: 30 hours
Procedure: as §9, §10

Molecule: COc1cc([C@@H]2c3cc4c(cc3[C@@H](O[C@@H]3O[C@@H]5CO[C@@H](C)O[C@H]5[C@H](O)[C@H]3O)[C@H]3COC(=O)[C@H]23)OCO4)cc(OC)c1O [etoposide]
- Caspase-3 activity with the caspase biosensor ([1]; 15 h treatment with 100 μM etoposide): not detected
- time of peak response in caspase-3 activity after stimulation [2]: 6 h

Molecule: COc1ccc(C[C@H]2NC[C@H](O)[C@H]2OC(C)=O)cc1 [Anisomycin]
- differential response of the p38 MAPK and NF-κB pathways [3]: activators of specific pathways

Molecule: COC(=O)Nc1nc2ccc(C(=O)c3cccs3)cc2[nH]1 [Nocodazole]
- Response of microtubule arrays [4]: Destabilization

Molecule: N.N.[Cl][Pt][Cl] [cis-platin]
- caspase activation reported by the biosensor [5]: accumulation of fluorescence in the nucleus

Molecule: IL-1α: model toxin, molecular weight 17 kD
- differential response of the p38 MAPK and NF-κB pathways [3]: activators of specific pathways
- EC50 [6]: 59 pM
- EC50 (NF-κB activation) ([7]; based on molecular weights of 17 kD): 0.24 10^−12 moles/liter

Molecule: CN[C@@H]1C[C@H]2O[C@@](C)([C@@H]1OC)n1c3ccccc3c3c4c(c5c6ccccc6n2c5c31)C(=O)NC4 [staurosporine]
- mitochondrial changes (mass / membrane potential) [8]: consistent decrease in mitochondrial membrane potential; also recorded: a decrease in membrane potential
- magnitude of caspase activation relative to comparator ([1]; maximum magnitude): approximately one-half that demonstrated with cis-platin in BHK cells
- change in peri-nuclear f-actin content [9]: dose-dependent increases in f-actin content
- change in peri-nuclear f-actin content ([9]; listed as Staurosporine): induced increases in f-actin
- mitochondrial changes (mass / membrane potential) [10]: clear increase in mitochondrial mass; also recorded: increases in mitochondrial mass
- change in peri-nuclear f-actin content [11]: either a decrease or increase depending on the concentration of staurosporine
- change in peri-nuclear f-actin content ([11]; listed as Staurosporine): concentration-dependent response
- change in nuclear morphology [12]: nuclear condensation
- mitochondrial changes (mass / membrane potential) [13]: either a decrease in membrane potential at lower concentrations of staurosporine, or an increase in mass at higher concentrations of staurosporine; also recorded: increases in mitochondrial mass
- change in peri-nuclear f-actin content [14]: dose-dependent increase in f-actin
- change in peri-nuclear f-actin content ([14]; listed as Staurosporine): induced increases in f-actin
- change in nuclear morphology [15]: dose-dependent change in nuclear morphology
- change in nuclear morphology ([15]; listed as Staurosporine): classic nuclear fragmentation
- change in nuclear morphology [16]: concentration dependent changes
- change in nuclear morphology ([16]; listed as Staurosporine): nuclear condensation at lower doses and nuclear fragmentation at higher doses

Molecule: C=CC[C@@H](CC/C(C)=C/C=C/CC/C=C\[C@@H]1CSC([C@@H]2C[C@@H]2C)=N1)OC [Curacin A]
- Response of microtubule arrays [4]: Destabilization

Molecule: tumor necrosis factor [TNFα]
- differential response of the p38 MAPK and NF-κB pathways [3]: activators of specific pathways
- EC50 [6]: 5.9 pM
- EC50 value (NF-κB activation) [7]: 0.15 ng/mL
- EC50 ([7]; based on molecular weights of 17 kD, read-out: EC50 (NF-κB activation)): 8.8 pM

Molecule: CC[C@]1(O)C[C@@H]2CN(CCc3c([nH]c4ccccc34)[C@@](C(=O)OC)(c3cc4c(cc3OC)N(C)[C@H]3[C@@](O)(C(=O)OC)[C@H](OC(C)=O)[C@]5(CC)C=CCN6CC[C@]43[C@@H]65)C2)C1 [Vinblastine]
- Response of microtubule arrays [4]: Destabilization
